# In patent publication US12655125B2 (SIRONAX LTD., priority 2020, dated 2026):
# Tested on: HT-29 cells
# Test: HT29 Cells 0FBS Assay In Vitro (TNF-α/SMAC mimetic/zVAD-FMK induced necroptosis, CellTiter-Glo cell viability)
# Format: cell-based
# Details: Homo sapiens; HT-29 cells, FBS free medium, TNF-α (10 ng/ml), SMAC mimetic (6 uM), zVAD-FMK (10 μM), 20 hours; geometric mean EC50; read-out: Cell activity (EC50) of Compounds 117-281
# Outline: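 HT-29 cells (5,000/well, seeded overnight) in serum-free McCoy's 5A were stimulated with TNF-α 10 ng/ml, SMAC mimetic 6 μM and zVAD-FMK 10 μM to induce necroptosis. Compound added as 10-point 3-fold series for 20 h at 37° C. CellTiter-Glo luminescence gives viability; EC50 is geometric mean of duplicate dose-responses.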
row,Structure (SMILES),EC50 [nM]
1,"CCOC(=O)c1[nH]c(C)c(-c2cc(OC3CN(C(=O)N4N=CC[C@H]4c4cc(F)cc(F)c4)C3)c(F)cn2)c1C [compound 153, Ethyl (S)-4-(4-((1-(5-(3,5-difluorophenyl)-4,5-dihydro-1H-pyrazole-1-carbonyl)azetidin-3-yl)oxy)-5-fluoropyridin-2-yl)-3,5-dimethyl-1H-pyrrole-2-carboxylate]",0.1 to 100
2,CNc1cc(-c2cc(OC3CN(C(=O)N4N=CC[C@H]4c4cc(F)cc(F)c4)C3)c(F)cn2)n(C)n1 [compound 154],0.1 to 100
3,"COCc1c(C)nn(-c2cc(OC3CN(C(=O)N4N=CC[C@H]4c4cc(F)cc(F)c4)C3)c(F)cn2)c1C [compound 155, (S)-(5-(3,5-difluorophenyl)-4,5-dihydro-1H-pyrazol-1-yl)(3-((5-fluoro-2-(4-(methoxymethyl)-3,5-dimethyl-1H-pyrazol-1-yl)pyridin-4-yl)oxy)azetidin-1-yl)methanone]",0.1 to 100
4,"Cc1nn(CCO)c(C)c1-c1ncc(F)c(OC2CN(C(=O)N3N=CC[C@H]3c3cc(F)cc(F)c3)C2)n1 [compound 156, (S)-(5-(3,5-difluorophenyl)-4,5-dihydro-1H-pyrazol-1-yl)(3-((5-fluoro-2-(1-(2-hydroxyethyl)-3,5-dimethyl-1H-pyrazol-4-yl)pyrimidin-4-yl)oxy)azetidin-1-yl)methanone]",0.1 to 100
5,"Cc1nn(C2CCOCC2)c(C)c1-c1cc(OC2CN(C(=O)N3N=CC[C@H]3c3cc(F)cc(F)c3)C2)c(F)cn1 [compound 157, (S)-(5-(3,5-difluorophenyl)-4,5-dihydro-1H-pyrazol-1-yl)(3-((2-(3,5-dimethyl-1-(tetrahydro-2H-pyran-4-yl)-1H-pyrazol-4-yl)-5-fluoropyridin-4-yl)oxy)azetidin-1-yl)methanone]",0.1 to 100
6,"Cc1nn(CC2CC2)c(C)c1-c1ncc(F)c(OC2CN(C(=O)N3N=CC[C@H]3c3cc(F)cc(F)c3)C2)n1 [compound 158, (S)-(3-((2-(1-(cyclopropylmethyl)-3,5-dimethyl-1H-pyrazol-4-yl)-5-fluoropyrimidin-4-yl)oxy)azetidin-1-yl)(5-(3,5-difluorophenyl)-4,5-dihydro-1H-pyrazol-1-yl)methanone]",0.1 to 100
7,"Cc1nn(C)c(C)c1-c1cc(OC2CN(C(=O)N3N=CC[C@H]3c3cc(F)cc(F)c3)C2)c(F)cn1 [compound 159, (S)-(5-(3,5-difluorophenyl)-4,5-dihydro-1H-pyrazol-1-yl)(3-((5-fluoro-2-(1,3,5-trimethyl-1H-pyrazol-4-yl)pyridin-4-yl)oxy)azetidin-1-yl)methanone]",0.1 to 100
8,"COCCNc1nn(C)c(-c2cc(OC3CN(C(=O)N4N=CC[C@H]4c4cc(F)cc(F)c4)C3)c(F)cn2)c1C [compound 160, (S)-(5-(3,5-difluorophenyl)-4,5-dihydro-1H-pyrazol-1-yl)(3-((5-fluoro-2-(3-((2-methoxyethyl)amino)-1,4-dimethyl-1H-pyrazol-5-yl)pyridin-4-yl)oxy)azetidin-1-yl)methanone]",0.1 to 100
9,"Cc1ccc(C(N)=O)n1-c1cc(OC2CN(C(=O)N3N=CC[C@H]3c3cc(F)cc(F)c3)C2)c(F)cn1 [compound 161, (S)-1-(4-((1-(5-(3,5-difluorophenyl)-4,5-dihydro-1H-pyrazole-1-carbonyl)azetidin-3-yl)oxy)-5-fluoropyridin-2-yl)-5-methyl-1H-pyrrole-2-carboxamide]",0.1 to 100
10,"Cc1c(NC(C)C)nn(C)c1-c1cc(OC2CN(C(=O)N3N=CC[C@H]3c3cc(F)cc(F)c3)C2)c(F)cn1 [compound 162, (S)-(5-(3,5-difluorophenyl)-4,5-dihydro-1H-pyrazol-1-yl)(3-((5-fluoro-2-(3-(isopropylamino)-1,4-dimethyl-1H-pyrazol-5-yl)pyridin-4-yl)oxy)azetidin-1-yl)methanone]",0.1 to 100
11,"Cc1c(NCC2CC2)nn(C)c1-c1cc(OC2CN(C(=O)N3N=CC[C@H]3c3cc(F)cc(F)c3)C2)c(F)cn1 [compound 163, (S)-(3-((2-(3-((cyclopropylmethyl)amino)-1,4-dimethyl-1H-pyrazol-5-yl)-5-fluoropyridin-4-yl)oxy)azetidin-1-yl)(5-(3,5-difluorophenyl)-4,5-dihydro-1H-pyrazol-1-yl)methanone]",0.1 to 100
12,"Cc1c(N(C)CC2CC2)nn(C)c1-c1cc(OC2CN(C(=O)N3N=CC[C@H]3c3cc(F)cc(F)c3)C2)c(F)cn1 [compound 164, (S)-(3-((2-(3-((cyclopropylmethyl)(methyl)amino)-1,4-dimethyl-1H-pyrazol-5-yl)-5-fluoropyridin-4-yl)oxy)azetidin-1-yl)(5-(3,5-difluorophenyl)-4,5-dihydro-1H-pyrazol-1-yl)methanone]",0.1 to 100
13,"Cc1c(C(N)=O)nn(C)c1-c1cc(OC2CN(C(=O)N3N=CC[C@H]3c3cc(F)cc(F)c3)C2)c(F)cn1 [compound 165, (S)-5-(4-((1-(5-(3,5-difluorophenyl)-4,5-dihydro-1H-pyrazole-1-carbonyl)azetidin-3-yl)oxy)-5-fluoropyridin-2-yl)-1,4-dimethyl-1H-pyrazole-3-carboxamide]",0.1 to 100
14,"CN(C)c1cc(-c2cc(OC3CN(C(=O)N4N=CC[C@H]4c4cc(F)cc(F)c4)C3)c(F)cn2)n(C)n1 [compound 166, (S)-(5-(3,5-difluorophenyl)-4,5-dihydro-1H-pyrazol-1-yl)(3-((2-(3-(dimethylamino)-1-methyl-1H-pyrazol-5-yl)-5-fluoropyridin-4-yl)oxy)azetidin-1-yl)methanone]",0.1 to 100
15,"CCS(=O)(=O)c1c(C)nn(-c2cc(OC3CN(C(=O)N4N=CC[C@H]4c4cc(F)cc(F)c4)C3)c(F)cn2)c1C [compound 167, (S)-(5-(3,5-difluorophenyl)-4,5-dihydro-1H-pyrazol-1-yl)(3-((2-(4-(ethylsulfonyl)-3,5-dimethyl-1H-pyrazol-1-yl)-5-fluoropyridin-4-yl)oxy)azetidin-1-yl)methanone]",0.1 to 100
16,"Cc1c(-c2cc(OC3CN(C(=O)N4N=CC[C@H]4c4cc(F)cc(F)c4)C3)c(F)cn2)c(CO)nn1CC1CC1 [compound 168, (S)-(3-((2-(1-(cyclopropylmethyl)-3-(hydroxymethyl)-5-methyl-1H-pyrazol-4-yl)-5-fluoropyridin-4-yl)oxy)azetidin-1-yl)(5-(3,5-difluorophenyl)-4,5-dihydro-1H-pyrazol-1-yl)methanone]",0.1 to 100
17,"Cc1c(-c2cc(OC3CN(C(=O)N4N=CC[C@H]4c4cc(F)cc(F)c4)C3)c(F)cn2)c(CO)nn1CC1COC1 [compound 169, (S)-(5-(3,5-difluorophenyl)-4,5-dihydro-1H-pyrazol-1-yl)(3-((5-fluoro-2-(3-(hydroxymethyl)-5-methyl-1-(oxetan-3-ylmethyl)-1H-pyrazol-4-yl)pyridin-4-yl)oxy)azetidin-1-yl)methanone]",1000 to 10000
18,"Cc1cc(C(F)(F)F)nn1-c1cc(OC2CN(C(=O)N3N=CC[C@H]3c3cc(F)cc(F)c3)C2)c(F)cn1 [compound 170, (S)-(5-(3,5-difluorophenyl)-4,5-dihydro-1H-pyrazol-1-yl)(3-((5-fluoro-2-(5-methyl-3-(trifluoromethyl)-1H-pyrazol-1-yl)pyridin-4-yl)oxy)azetidin-1-yl)methanone]",0.1 to 100
19,"CN(C)C(=O)c1cc(-c2cc(OC3CN(C(=O)N4N=CC[C@H]4c4cc(F)cc(F)c4)C3)c(F)cn2)n(C)n1 [compound 171, (S)-5-(4-((1-(5-(3,5-difluorophenyl)-4,5-dihydro-1H-pyrazole-1-carbonyl)azetidin-3-yl)oxy)-5-fluoropyridin-2-yl)-N,N,1-trimethyl-11H-pyrazole-3-carboxamide]",0.1 to 100
